Read-outs that look alike come from different tables or passages of the source.
Legend:
[1] = active element release into the headspace of emulsions under in vitro dynamic conditions, monitored by PTR-MS; format: physicochemical; conditions: for significance of Tmax difference: emulsion of this invention 5 wt % (MG:MCT 1:20) vs simple reference emulsion 5 wt % MCT, Fisher LSD, α<0.05
From the text: The Tmax of a given active element released from a given emulsion is a parameter determined from the curve representing the variation over time of the given active element concentration in the water phase or in the headspace of the emulsion or of product containing the emulsion under dynamic condition (denoted as release curve) as time at which the measured concentration of the given active element reaches its maximum (FIG. 1). The analytical methods that can be applied for measurement of release curve and corresponding Tmax in dynamic condition include, but are not restricted to, measuring in headspace under a continuous purging flow of nitrogen and analyzing the active element in the purged headspace gas through its specific mass-to-charge using Proton Transfer Reaction-Mass Spectrometry (PTR-MS) (Pollien, P., Lindinger, C., Yeretzian, C., and Blank, I., “Proton Transfer Reaction Mass Spectrometry, a Tool for On-Line Monitoring of Acrylamide Formation in the Headspace of Maillard Reaction Systems and Processed Food,” Analytical Chemistry, Vol. 75, No. 20, 2003, pp. 5488-5494).
A double-jacketted glass cell was held at 36° C. with a circulating water bath. This cell was put in the oven which was held at 60° C. in order to avoid cold points and water condensation. The headspace cell was continuously purged at 200 sccm (standard cubic centimeters per minute) with pure nitrogen. Prior to introduction into the PTR-MS, the headspace was diluted with 1960 sccm of nitrogen to avoid water saturation of the instrument.
When all the set-up had been thermo-stabilized, 100 ml of sample, after being stabilized at 36° C. in a water bath, was poured inside the cell, which was quickly reconnected and put under agitation at 135 rpm. The release of active elements was monitored on-line during 10 minutes for each sample.
Nine specific masses were selected based on the scan data, i.e., m/z 45 for acetaldehyde, m/z 83 for cis-3-Hexen-1-ol, m/z 87 for diacetyl, m/z 99 for 2E-hexenal, m/z 107 for benzaldehyde, m/z 111 for octanal, m/z 131 for ethyl isovalerate, m/z 137 linalool, m/z 167 for 3-methoxy-2-isobutylpyrazine.
The PTR-MS signals (ion count) enabled us to calculate the active element concentration in the headspace of the emulsion so that to build the release curve for the active element. Cmax of a given active element released from a given emulsion was determined from the release curve as the maximum concentration of the active element released in the headspace of the emulsion, expressed in ppmV (parts per million in volume).
Tmax of a given active element released from a given emulsion was determined from the release curve as the time to reach maximum concentration of the active element released in the headspace of the emulsion, expressed in seconds. The nine active elements are listed in X axis and sorted along their logP, from the lowest logP value (hydrophilic compounds) to the highest logP (lipophilic compounds). Black, grey and hatched bars represent respectively Tmax the active elements released in the headspace of an oil-in-water emulsion containing with 10 wt % Medium Chain Triglycerides (MCT) (herein labelled as simple emulsion with 10 wt % MCT), of an oil-in-water emulsion containing 5 wt % MCT (herein labelled as simple reference emulsion with 5 wt % MCT), and an oil-in-water emulsion containing 5 wt % of an 1:20 mixture of a unsaturated monoglyceride (DIMODAN MO90, Danisco, Denmark) and MCT (herein Emulsion of the present invention with 5 wt % (MG:MCT 1:20)). All Tmax values were obtained on 6 replicated measurements. Tmax of 2E-Hexenal for the simple emulsion with 10 wt % MCT is not determined because its concentration in the headspace was continuously and gradually increasing over the 10 minutes of measurement. […]

[2] = octanol/water partition coefficient (logP) of the active elements; format: physicochemical
From the text: The logarithm of the octanol/water partition coefficient (logP) is used extensively to describe the lipophilic or hydrophobic properties of an active element. The logP property value is taken from the ratio of the respective concentrations of the active element in the n-octanol and water partitions of a two-phase system at equilibrium. Among other methods, the classical and most reliable method of logP determination is the shake-flask method, which consists of dissolving some of the active element in question in a volume of n-octanol and water, then measuring the concentration of the solute in each solvent (Organization for Economic Cooperation and Development, Guidelines for The Testing of Chemicals, OECD 107, Partition Coefficient (n-octanol/water)-Shake Flask Method, Adopted 27 Jul. 1995-, OECD, Paris, France).
Table 1 lists active elements used in the study, providing chemical name (first column), the Chemical Abstract Service number (CAS#, second column), supplier and supplier product code (third and fourth column), the logarithm of the octanol/water partition coefficient (logP) and the concentration used in final formulations in parts per million of volume (ppmV). These nine active elements are volatile aroma compounds.

[3] = n-octanol/water, logarithm of the octanol/water partition coefficient, read-out: logP

Row | Structure (SMILES) | significance of Tmax difference [1] | logP [2, 3] | logP [2] | logP ([2]; logarithm of the octanol/water partition coefficient) | Cmax released in headspace, comparison ([1]; emulsion of the present invention 5 wt % (MG:MCT 1:20) vs simple emulsion 10 wt % MCT)
1 | COc1nccnc1CC(C)C [3-methoxy-2-isobutylpyrazine] | significant increase | 2.62 | – | – | –
2 | CC=O [Acetaldehyde] | non-significant difference | -0.156 | – | – | –
3 | O=Cc1ccccc1 [Benzaldehyde] | significant increase | – | – | – | –
4 | CC(=O)C(C)=O [Diacetyl] | non-significant difference | – | −1.332 | – | –
5 | CCOC(=O)CC(C)C [Ethyl isovalerate] | significant increase | 2.12 | – | – | –
6 | CCC/C=C/C=O [Example 2E-hexenal, 2E-hexenal] | – | – | – | 1.576 | –
7 | C=CC(C)(O)CCC=C(C)C (centres unmarked) [Linalool] | significant increase | 3.28 | – | – | significantly higher
8 | CCCCCCCC=O [Octanal] | significant increase | 3.03 | – | – | –
9 | CC/C=C\CCO [cis-3-Hexen-1-ol] | significant increase | […] | – | – | –
